Patent US12227536B2, “Crystalline forms of an NRTTI compound” (Merck Sharp & Dohme LLC, priority 2018, dated 2025)

Experiments:
[1] = system: lymphoid derived cell lines and peripheral blood mononuclear cells; conditions: in vitro; cited from earlier work
[2] = Solubility of EFdA Forms 1, 2 and 4 in acetonitrile as a function of temperature; type: physicochemical; conditions: for Solubility / Solubility Ratio (Form 1/4): acetonitrile; for Form 1 and Form 4 ΔΔG: calculated; for Relative thermodynamic stability of the phase: from solubility in acetonitrile between 25.0 and 65.0 °C
Experimental: The Gibbs free energy (ΔG) of a phase is the fundamental thermodynamic parameter that determines the relative stability of a polymorphs at a given temperature. The solubility of a particular polymorph is related to the ΔG by the equation ΔG=−RTln (solubility). The polymorph with the lowest solubility is considered to be the thermodynamically stable phase at a given temperature. Table 6 lists the measured solubility for Forms 1, 2 and 4 of EFdA in acetonitrile between 25.0 and 65.0° C. […] The relatively low ΔΔG values for conversion of Form 1 to Form 4 (i.e., the energy gap between Form 1 and Form 4 is small; 0.21-0.35 kJ/mol), combined with the fast crystallization kinetics of Form 1 as compared to Form 4, result in difficulties isolating Form 4 using conventional methods of polymorph screening.

[3] = Critical water activity from solubility in acetonitrile as a function of water content; type: physicochemical; conditions: 25 °C
Experimental: The thermodynamic parameter for the stability of the monohydrate Form MH and anhydrate Form 4 of EFdA is the critical water activity. Below this water activity, anhydrous Form 4 is thermodynamically preferred. Above this water activity, monohydrate Form MH is thermodynamically preferred. The solubility of EFdA monohydrate Form MH and anhydrate Forms 1 and 4 were determined in acetonitrile as a function of water content at 25.0° C. The critical water activity for the EFdA monohydrate/Form 4 system at 25° C. was determined to be 0.3.

[4] = Crystal form stability in hot melt extrusion (HME) of EFdA/EVA implant product, by XRD; type: physicochemical
Experimental: Anhydrate crystalline Forms 1, 2, and 4 of EFdA were isolated by hot melt extrusion (HME) processing. Micronized ethylene vinyl acetate (EVA) polymer and monohydrate crystalline Form MH of EFdA were blended with a Turbula T2F mixer at various ratios: 30, 35, 40, 45 and 50 wt % drug. The pre-blend was hot melt extruded with an 18 mm Leistritz twin screw extruder with a 25:1 L/D, throughput of 400 g/hr, temperatures ranging from 100-140° C., feed zone at 40° C., and screw speed at 30 rpm. Two screw configurations were used, both predominately consisting of conveying elements with different mixing sections. The less aggressive screw design contained a mixing section consisting of conveying, kneading elements each 15 mm in length, with twisting angles of 30°, 60°, and 60° (“HME low shear Process A”). The more aggressive screw design included additional mixing segments after the mixing section used in the less aggressive design: conveying, kneading elements each 15 mm in length, with a twisting angle of 90° (“HME high shear Process B”). For both extrusion set-ups, the strands were then air-cooled and pelletized to form micropellets. The pellets were then extruded with a ½″ American Kuhne single screw extruder with temperatures ranging from 110-140° C., feed zone at 25° C., and screw speed at 20-25 rpm to form a 2±0.05 mm diameter filament, and then cut to a length of 40±2 mm. […]

| Solubility ([2]; 25.0 °C) [mg/g solv.] | Solubility ([2]; 35.0 °C) [mg/g solv.] | Solubility ([2]; 45.0 °C) [mg/g solv.] | Solubility ([2]; 55.0 °C) [mg/g solv.] | Solubility ([2]; 65.0 °C) [mg/g solv.] | Relative thermodynamic stability of the phase [2] | SMILES | also measured |
| --- | --- | --- | --- | --- | --- | --- | --- |
| – | – | – | – | – | – | C#C[C@]1(COP(=O)(O)OP(=O)(O)OP(=O)(O)O)O[C@@H](n2cnc3c(N)nc(F)nc32)C[C@@H]1O [EFdA-TP] | Intracellular half-life [1]: exceeds 72 hrs |
| 2.15 ± 0.02 | 2.43 ± 0.01 | 3.44 ± 0.02 | 4.74 ± 0.02 | 6.81 ± 0.03 | – | C#C[C@]1(CO)O[C@@H](n2cnc3c(N)nc(F)nc32)C[C@@H]1O [Form 1, 4′-Ethynyl-2-fluoro-2′-deoxyadenosine] | Solubility Ratio (Form 1/4) ([2]; 25.0 °C): 1.15; Solubility Ratio (Form 1/4) ([2]; 35.0 °C): 1.13; Solubility Ratio (Form 1/4) ([2]; 45.0 °C): 1.08; Solubility Ratio (Form 1/4) ([2]; 55.0 °C): 1.12; Solubility Ratio (Form 1/4) ([2]; 65.0 °C): 1.13; ΔΔG for conversion of Form 1 to Form 4 (energy gap) ([2]; between 25.0 and 65.0 °C): 0.0502 to 0.0837 kcal/mol; Form 1 and Form 4 ΔΔG ([2]; 25.0 °C): 0.0837 kcal/mol; Form 1 and Form 4 ΔΔG ([2]; 35.0 °C): 0.0789 kcal/mol; Form 1 and Form 4 ΔΔG ([2]; 45.0 °C): 0.0502 kcal/mol; Form 1 and Form 4 ΔΔG ([2]; 55.0 °C): 0.0717 kcal/mol; Form 1 and Form 4 ΔΔG ([2]; 65.0 °C): 0.0789 kcal/mol |
| 2.43 ± 0.01 | 3.20 ± 0.03 | 4.39 ± 0.04 | 5.79 ± 0.09 | 7.72 ± 0.12 | least stable phase | C#C[C@]1(CO)O[C@@H](n2cnc3c(N)nc(F)nc32)C[C@@H]1O [Form 2, 4′-Ethynyl-2-fluoro-2′-deoxyadenosine] | – |
| 1.87 ± 0.02 | 2.14 ± 0.02 | 3.18 ± 0.01 | 4.24 ± 0.01 | 6.05 ± 0.05 | most thermodynamically stable phase | C#C[C@]1(CO)O[C@@H](n2cnc3c(N)nc(F)nc32)C[C@@H]1O [Form 4, 4′-Ethynyl-2-fluoro-2′-deoxyadenosine] | Critical water activity, EFdA monohydrate/Form 4 system [3]: 0.3 |
| – | – | – | – | – | – | C#C[C@]1(CO)O[C@@H](n2cnc3c(N)nc(F)nc32)C[C@@H]1O [Form MH, 4′-Ethynyl-2-fluoro-2′-deoxyadenosine] | Crystal form after HME processing ([4]; HME high shear Process B): converted the Form MH phase into anhydrate Form 4; Crystal form after HME processing ([4]; HME low shear Process A): converted the Form MH phase into anhydrate Form 1 and anhydrate Form 2 |
